From patent US20190227053A1, “BIO-ELECTRIC NOSE” (NEW YORK UNIVERSITY, priority 2016, published 2019)

Test system: olfactory bulb glomeruli
Test: Odor detection by the bio-electronic nose (surface electrode array on the olfactory bulb)
Format: in vivo, mouse
Details: FIG. 10
Text: In one embodiment utilizing an organism, such as a mouse, as the chemical detector, the mouse is anesthetized and a craniotomy will be made above one of the OBs. A grid electrode will be positioned on the surface of the bulb. The recording is optimized for different conditions: sub or epi-durally or through a thin layer of skull. Alternatively, a surface electrode can be implanted in conjunction with a probe (such as silicone) inserted to the bulb to obtain signals from higher processing levels, such as the mitral/tufted cells, to improve the filtration of early olfactory responses. Typically, the electrode is divided into several areas (1-4) of 8×8 electrode sites. […]
In one embodiment, a method of interpreting information from the at least one electrode relies on the development of reliable techniques for recording on the surface of the bulb and on algorithms for extracting odor information from these recordings. […] Theta waves, indicative of respiration, are used to verify inhalation in conjunction with readings from the pressure signal. […]
For […], at each session a mouse will be positioned in a head-fixed apparatus similar to that used for anesthetized recordings (FIG. 7). The sniffing/breathing pattern and signals continuously recorded from electrode array, and we will expose the mouse to multiple odor presentations (n˜500). […]

SMILES | minimum detectable concentration (odorant detected by the bio-electronic nose) | EC50 (odorant presented to mouse with electrode array on olfactory bulb, read-out: minimum concentration (EC50) detected by the bio-electronic nose) [nM]
CCCCC(=O)OC [Methyl Valerate] | 10^−12 M | 
NCCc1ccccc1 [Phenylethylamine] |  | 0.01
